In patent publication US5843885A, “ICAM-1/LFA-1 short-chain peptides and method of using same” (The University of Kansas, priority 1997, dated 1998):
Where no end group is shown, it is not given here.

Key:
[1] = target: T1, ICAM-1 (CD54) on Molt3 cells (Homo sapiens, UniProt P05362); experiment: Antibody binding assay (FACS): anti-CD54 mAb binding to Molt3 T-cells; conditions: for Fluorescence, % change from control of the medium fluorescence intensity: mAb CD54
T1 construct: host or cells: Molt3 human T-cell line
T1 sequence (P05362 28-532): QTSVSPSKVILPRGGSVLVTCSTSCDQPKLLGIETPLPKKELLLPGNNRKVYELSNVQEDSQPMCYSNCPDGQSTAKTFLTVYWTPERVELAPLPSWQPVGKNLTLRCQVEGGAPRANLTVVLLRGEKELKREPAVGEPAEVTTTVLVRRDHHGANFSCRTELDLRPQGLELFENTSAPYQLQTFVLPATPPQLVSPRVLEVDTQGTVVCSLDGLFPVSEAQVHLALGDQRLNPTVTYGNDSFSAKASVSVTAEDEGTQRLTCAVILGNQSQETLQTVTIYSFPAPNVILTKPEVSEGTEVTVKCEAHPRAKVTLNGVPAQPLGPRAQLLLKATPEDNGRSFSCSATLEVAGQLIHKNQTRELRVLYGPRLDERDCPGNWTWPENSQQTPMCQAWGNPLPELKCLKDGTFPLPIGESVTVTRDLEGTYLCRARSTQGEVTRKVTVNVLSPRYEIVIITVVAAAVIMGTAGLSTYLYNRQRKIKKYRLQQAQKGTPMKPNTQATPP

Molt3 cells = experiment: Cell metabolic assay (MTT); assay type: cell-based, human
Description: After taking the photographs in Example 3 (and in some instances no photographs were taken), cell metabolic activity was assessed by an MTT assay. A 37.5 μl portion of MTT dye (purchased from SIGMA of St. Louis, Mo.), i.e., 3-[4,5-dimethyl thiazole-2yl]-2, 5-diphenyl tetrazolium bromide; thiazolyl blue) was added to each well, and incubated with the cells at 37° C. for about six hours. After incubation, a 250 μl quantity of a MTT solubilization solution (of a type that may be purchased from either Fischer Scientific of St. Louis, Mo. or BCD Labs of Lawrence, Kans.) was added to each well, and incubated with the cells at room temperature overnight. In the morning, the spectrophotometric absorption of each plate was determined at 570 nm in a microplate ELISA reader manufactured by Cambridge Technologies of Watertown, Mass., in order to assess cell viability as an indicator of potential peptide toxicity.

[2] = target: T2, LFA-1 (CD11a) on Molt3 cells (Homo sapiens, UniProt P20701); experiment: Antibody binding assay (FACS): anti-CD11a mAb binding to Molt3 T-cells; conditions: for Fluorescence, % change from control of the medium fluorescence intensity: mAb CD11a, average ± standard error; for blocking efficiency: single run (FIGS. 2 and 3)
T2 construct: host or cells: Molt3 human T-cell line
T2 sequence (P20701 26-1170): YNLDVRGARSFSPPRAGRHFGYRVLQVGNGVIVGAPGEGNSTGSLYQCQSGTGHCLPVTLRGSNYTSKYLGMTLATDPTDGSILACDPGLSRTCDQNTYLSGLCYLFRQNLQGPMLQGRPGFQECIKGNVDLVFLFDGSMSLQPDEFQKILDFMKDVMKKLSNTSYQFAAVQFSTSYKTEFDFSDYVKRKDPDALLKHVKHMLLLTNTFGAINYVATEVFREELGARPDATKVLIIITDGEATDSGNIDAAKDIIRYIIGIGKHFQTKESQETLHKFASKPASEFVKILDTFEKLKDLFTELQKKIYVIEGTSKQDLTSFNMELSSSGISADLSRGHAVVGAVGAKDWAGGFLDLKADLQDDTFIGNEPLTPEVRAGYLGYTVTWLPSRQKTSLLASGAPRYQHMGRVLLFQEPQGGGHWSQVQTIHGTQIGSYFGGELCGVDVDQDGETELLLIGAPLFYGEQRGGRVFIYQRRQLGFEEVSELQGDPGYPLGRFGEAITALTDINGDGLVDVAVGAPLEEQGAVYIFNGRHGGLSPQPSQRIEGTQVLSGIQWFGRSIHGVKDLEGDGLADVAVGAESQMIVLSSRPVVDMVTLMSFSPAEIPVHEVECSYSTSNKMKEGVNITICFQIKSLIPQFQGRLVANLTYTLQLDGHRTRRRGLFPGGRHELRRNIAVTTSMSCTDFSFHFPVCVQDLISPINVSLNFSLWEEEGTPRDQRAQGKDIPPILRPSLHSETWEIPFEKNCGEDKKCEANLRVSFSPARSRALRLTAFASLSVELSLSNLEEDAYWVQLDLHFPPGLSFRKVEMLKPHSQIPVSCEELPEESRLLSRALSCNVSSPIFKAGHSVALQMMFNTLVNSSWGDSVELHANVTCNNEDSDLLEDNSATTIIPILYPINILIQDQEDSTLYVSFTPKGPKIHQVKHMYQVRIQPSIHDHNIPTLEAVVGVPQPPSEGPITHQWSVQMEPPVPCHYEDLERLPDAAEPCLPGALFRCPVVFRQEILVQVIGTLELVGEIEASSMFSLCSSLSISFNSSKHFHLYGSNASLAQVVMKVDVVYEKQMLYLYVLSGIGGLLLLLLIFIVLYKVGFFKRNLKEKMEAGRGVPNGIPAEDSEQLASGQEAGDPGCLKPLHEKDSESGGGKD
T2 sequence (P05107 23-769 partner): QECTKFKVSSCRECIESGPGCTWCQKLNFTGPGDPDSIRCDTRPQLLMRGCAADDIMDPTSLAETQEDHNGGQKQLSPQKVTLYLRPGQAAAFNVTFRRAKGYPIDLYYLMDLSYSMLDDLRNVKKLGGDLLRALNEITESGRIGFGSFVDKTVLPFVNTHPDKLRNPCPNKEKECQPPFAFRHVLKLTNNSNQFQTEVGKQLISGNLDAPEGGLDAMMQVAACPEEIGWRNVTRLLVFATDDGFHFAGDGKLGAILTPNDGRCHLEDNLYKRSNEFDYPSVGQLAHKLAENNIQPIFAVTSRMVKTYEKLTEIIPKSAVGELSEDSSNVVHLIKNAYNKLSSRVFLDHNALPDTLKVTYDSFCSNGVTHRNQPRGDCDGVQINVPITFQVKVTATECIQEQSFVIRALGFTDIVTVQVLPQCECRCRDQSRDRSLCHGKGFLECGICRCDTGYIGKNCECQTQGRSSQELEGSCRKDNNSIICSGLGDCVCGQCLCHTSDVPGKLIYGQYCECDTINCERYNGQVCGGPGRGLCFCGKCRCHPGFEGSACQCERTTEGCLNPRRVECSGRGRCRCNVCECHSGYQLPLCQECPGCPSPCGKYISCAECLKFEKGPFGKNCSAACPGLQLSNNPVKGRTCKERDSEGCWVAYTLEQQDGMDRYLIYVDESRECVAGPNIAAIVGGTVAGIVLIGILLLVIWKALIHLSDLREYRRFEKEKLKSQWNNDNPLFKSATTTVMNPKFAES
Description: A 1 ml quantity of the Molt3 inoculum was warmed to 37° C. and transferred by pipette into about 25 ml of a growth culture medium including RPMI 1640 lymphocyte growth medium (Fisher Scientific of St. Louis, Mo.) mixed with 10% by volume fetal calf serum, 100 units/ml penicillin, 100 μg/ml streptomycin and 2 mM glutamine. The inoculated culture was incubated for three to four days at 37° C. under a normal atmosphere having about 5% CO2 added thereto. This culture was capable of being maintained indefinitely by siphoning away the top (non-cell containing) layer and adding 50 ml (or more) of growth culture medium at intervals of three to four days.
An aqueous buffer solution including Dulbecco's phosphate buffered saline and bovine serum albumin ("PBS/BSA solution") was prepared for use, and included a mixture of 200 mg KH2 PO4, 1.15 g Na2 HPO4, 100 mg CaCl2, 200 mg KC1, 100 mg MgCl2.6H2 O, 8 g NaCl, with distilled water added to a final 1 liter volume at room temperature, thus, forming a "PBS" solution of pH 7.4 to which was added 0.5% by weight bovine serum albumin.
An aliquot of about 7 ml was removed from the incubated culture medium and subjected to washing with the PBS/BSA solution. The washing procedure was initiated by placing the aliquot in a centrifuge (Model GT422 from Jouan, distributed Piruscio & Assoc. of Manchester, Mo.) at 1400 rpm for 6.5 minutes to separate the cells from the growth medium. The supernatant fluid was decanted, a 5 ml portion of PBS/BSA solution was transferred by pipette into the pellet, and the mixture was again centrifuged as before. The resulting supernatant fluid was decanted and the cells from the pellet were resuspended in PBS/BSA solution at a titer of about 1×10^6 cells/ml. A 500 μl portion of the solution containing the resuspended cells was placed in a microcentrifuge (Marathon 13K/M from Fisher Scientific of St. Louis, Mo.) at 3500 rpm for six minutes, to provide a washed pellet.
[…] The cells were incubated with the peptide cocktail at 37° C. for 45 minutes.
After incubation with the peptide cocktail, several antibodies were successively mixed into the incubated solution. A 75 μl portion of anti-IgM solution (a mixture of 10 μl of goat anti-human IgM stock purchased from Jackson Immuno Research of Westgrove, Pa; and 65 μl of PBS/BSA solution) was added to the peptide cocktail for blocking of nonspecific binding of the secondary antibody. The resulting mixture was incubated for 10 minutes on ice. About 0.1 μg of a primary antibody including mouse IgG anti-human CD11a (purified according to conventional protocols at the University of Kansas Department of Pharmacology and Toxicology from an American Type Culture hybridoma cell line having Catalogue Number HB-202) was next stirred into the mixture, which was then incubated for 30 minutes at room temperature. The incubated mixture was placed in a microcentrifuge at 3500 rpm for six minutes to remove the cells from the mixture, and the cell pellet was washed two times by adding 500 μl aliquots of PBS/BSA solution and microfuging to remove non-bound antibodies from the cells as before. The resulting washed pellet was resuspended in 100 μl of a secondary antibody cocktail including 5 μl of fluorescein isothiocyanate ("FITC") labeled goat anti-mouse IgG (from CALTAG of South San Francisco, Calif.) and 95 μl of PBS/BSA solution. The resulting solution was incubated for 30 minutes at room temperature in the dark.
The incubated solution including the secondary antibody cocktail was microfuged at 3500 rpm for six minutes to remove the cells from the solution, and the cell pellet was washed two times with 500 μl portions of PBS/BSA solution, as before, to remove unbound antibodies. […]

[3] = target: Leucocyte Function Associated antigen-1 (LFA-1), on Molt3 human T-cells (human); experiment: flow cytometry on Molt3 T-cells; control without peptide; FITC goat anti-mouse IgG secondary
[4] = target: Leucocyte Function Associated antigen-1 (LFA-1), on Molt3 human T-cells (human); experiment: flow cytometry on Molt3 T-cells preincubated with SC-3-111 (run of FIG. 2); FITC goat anti-mouse IgG secondary
ICAM-1 on Molt3 cells = target: T3, ICAM-1 on Molt3 cells (Homo sapiens, UniProt P05362); experiment: Conformation modulator assay: binding of FITC-labeled RB-1-88 peptide to T-cells (FACS); conditions: first peptide 4550 μM, then FITC-labeled RB-1-88 1.90 μM
T3 construct: host or cells: Molt3 human T-cell line
T3 sequence (P05362 28-532): as the sequence (P05362 28-532) above
Description: The antibody binding assay of Example 2 was twice repeated at a peptide concentration of 4550 μM, each time substituting a 455 nmol quantity of synthetic peptide selected from the group consisting of ICAM-based peptide SC-3-111 (Sequence ID No. 10) and LFA-based peptide LJCRF-4 (Sequence ID No. 16) in respective assays. Following incubation for 30 minutes at 37° C. after introduction of the first peptides, both incubated culture were supplemented by an additional quantity of FITC-labeled RB-1-88 (Sequence ID No. 19) peptide in a quantity sufficient to provide a 1.90 μM concentration in the cell/PBS solution.
Following addition of the RB-1-88 (Sequence ID No. 19) peptide, the mixture was incubated for 30 minutes at 4° C., washed three times with 500 μl PBS/BSA, resuspended in 500 μl PBS/BSA and immediately subjected to a flow cytometer analysis as before. Table 3 presents the results of this analysis, which are also depicted in FIGS. 8 (SC-3-111) and 9 (LJCRF-4).

[5] = target: Leucocyte Function Associated antigen-1 (LFA-1), on Molt3 human T-cells (human); experiment: flow cytometry on Molt3 T-cells; peptide 4550 µM; probe antibody mouse IgG anti-human CD11a; average of 2 runs
[6] = peptide 4550 μM, average ± standard error

Molecule | MTT % Viability (Molt3 cells; 230 μM) | MTT % Viability (Molt3 cells; 460 μM) | MTT % Viability (Molt3 cells; 910 μM) | MTT % Viability (Molt3 cells; 1820 μM) | Fluorescence, % change from control of the medium fluorescence intensity ([2]; peptide 2275 μM) | Fluorescence, % change from control of the medium fluorescence intensity ([2]; peptide 4550 μM) | other results
GVDVDQDGETELIGAPLFYGEQRG [LJCRF-5] | 84% | 81% | 52% | 20% |  |  | Fluorescence, % change from control of the medium fluorescence intensity [1, 6]: -17%; MTT % Viability (Molt3 cells; 115 μM): 95%; metabolic activity in MTT assay (Molt3 cells; 1820 μM): decrease in metabolic activity
DQPKLLGIETPLPKKELLLPGNNRK [LJCRF-2] | 38% | 38% | 38% | 43% | +48 ± 8% | -43 ± 7% | MTT % Viability (Molt3 cells; concentration not given): 38%
KELLLPGNNRKVYELSNVQEDSQP [LJCRF-3] |  |  |  |  |  | -13 ± 19% | 
mouse IgG anti-human CD11a (from American Type Culture hybridoma cell line HB-202) (antibody) |  |  |  |  |  |  | median peak fluorescence intensity (fluorescence intensity) [3]: 264; median peak fluorescence intensity (fluorescence intensity) [4]: 129
QTSVSPSKVI [SC-3-111] | 93% | 95% | 89% | 69% | -12 ± 4% | -29 ± 2% | % change of median peak from control ([2]; single run (FIG. 2), 4550 μM, anti-CD11a): -51%; blocking efficiency ([2]; 4550 μM, anti-CD11a): 51%; MTT % Viability (Molt3 cells; concentration not given): 85%
QTSVSPSKVILPRGGSVLVTG [LJCRF-1] |  | 93% | 92% | 66% | -12 ± 2% | -29 ± 3% | blocking efficiency ([2]; 4550 μM, anti-CD11a): 65%
DLSYSLDDLRNVKKLGGDLLRALNE [LJCRF-4] | 101% | 94% | 60% | 11% |  |  | Fluorescence, % change from control of the medium fluorescence intensity ([1]; peptide 2275 μM, average ± standard error): +3 ± 1%; Fluorescence, % change from control of the medium fluorescence intensity ([1]; peptide 6825 μM): +521%; curve shift / median peak enhancement ([1]; single run (FIG. 4), 4550 μM, anti-ICAM-1 mAb): +447%; MTT % Viability (Molt3 cells; 115 μM): 99%; MTT % Viability (Molt3 cells; 115 μM, listed as SC-3-223): 103%; MTT % Viability (Molt3 cells; 230 μM, listed as SC-3-223): 109%; MTT % Viability (Molt3 cells; 460 μM, listed as SC-3-223): 112%; MTT % Viability (Molt3 cells; 910 μM, listed as SC-3-223): 108%; MTT % Viability (Molt3 cells; 1820 μM, listed as SC-3-223): 75%; FACS Analysis (RB-1-88 binding), shift from control (ICAM-1 on Molt3 cells): +145%
ITDGEATDSGNIDAAKDIIYIIGI [LJCRF-6] |  |  |  |  |  |  | Fluorescence, % change from control of the medium fluorescence intensity [1, 6]: -4%
LPRGGSVLVTG [MC-1-80] |  |  |  |  |  |  | metabolic activity in MTT assay (Molt3 cells; 910 μM): cellular respiration was enhanced
KELLLPGNNRKVYELSNVQEDSQP [LJCRF-3] |  |  |  |  |  |  | % change from control of the median fluorescence intensity (% change from control) [5]: -13
